Laboratory results reported in patent US11168106B1, “Synthesis and stabilization of nicotinamide ribose and its derivatives” (priority 2017, dated 2021).

Experiments:
[1] = Decomposition of nicotinamide ribose in water with and without borate, HPTLC read at 254 nm; type: physicochemical; settings: for Area [%] of assigned substance, decomposition of nicotinamide ribose with borate: boric acid added in 1:1 molar ratio, in water; for Area [%] of assigned substance, decomposition of nicotinamide ribose with borate / Area [%] of assigned substance, decomposition of nicotinamide ribose without borate: water bath 65° C., 8 h, HPTLC at 254 nm; for Area [%] of assigned substance, decomposition of nicotinamide ribose without borate: 1 mg/mL in water
Method: Nicotinamide riboside (NR) as its chloride salt was used at 100 mM. Boric acid: was used at 300 mM. All samples were prepared in water. This, 1 mg/mL of nicotinamide riboside of capsule content was weighed in a 25 mL volumetric flask. Water was added to 25 mL total volume. For the reaction in the presence of boric acid, the same was done with boric acid added in a 1:1 molar ratio. In either case, 5 mL of each solution prepared was placed in the water bath at 65° C. A control was incubated at room temperature. After incubation for 8 h, 2 μL of each solution (heated and not heated) are placed on the HPTLC plate. The plate is eluted in the following mobile phase: ethanol, ammonium acetate 1 M (7:3). The plate is read at 254 nm to obtain the respective peaks.

[2] = tested on: NAD; settings: healthy middle-aged and older adults, cited from earlier work

Area [%] of assigned substance, decomposition of nicotinamide ribose with borate [1] | Stabilization with respect to decomposition ([1]; boric acid vs no boric acid (FIG. 3 and FIG. 4)) | Area [%] of assigned substance, decomposition of nicotinamide ribose without borate [1] | SMILES | Effect on NAD level ([2]; chronic supplementation) | Tolerability of chronic supplementation [2]
86.08% | stabilized by boric acid | 70.1878% | NC(=O)c1ccc[n+]([C@@H]2O[C@H](CO)[C@@H](O)[C@H]2O)c1 [Nicotinamide riboside] | elevates NAD | well-tolerated
13.92% | – | 29.8122% | NC(=O)c1cccnc1 [Nicotinamide] | – | –
